Measurements published in BigSolDB 2.1.

CCCCCCCCCCCCCCCCCCCCCCCCCCCCO
solubility (mole fraction) (in n-hexanol, 298.2 K): 0.000906
solubility (mole fraction) (in n-hexanol, 303.2 K): 0.00126
solubility (mole fraction) (in n-hexanol, 308.2 K): 0.00238
solubility (mole fraction) (in n-hexanol, 313.2 K): 0.00436
solubility (mole fraction) (in n-hexanol, 318.2 K): 0.00758
solubility (mole fraction) (in n-hexanol, 323.2 K): 0.0148
solubility (mole fraction) (in n-hexanol, 328.2 K): 0.0291
solubility (mole fraction) (in n-hexanol, 333.2 K): 0.0602
solubility (mole fraction) (in n-pentanol, 298.2 K): 0.000644
solubility (mole fraction) (in n-pentanol, 303.2 K): 0.00115
solubility (mole fraction) (in n-pentanol, 308.2 K): 0.00222
solubility (mole fraction) (in n-pentanol, 313.2 K): 0.00375
solubility (mole fraction) (in n-pentanol, 318.2 K): 0.00658
solubility (mole fraction) (in n-pentanol, 323.2 K): 0.013
solubility (mole fraction) (in n-pentanol, 328.2 K): 0.026
solubility (mole fraction) (in toluene, 298.2 K): 0.0014
solubility (mole fraction) (in toluene, 303.2 K): 0.00246
solubility (mole fraction) (in toluene, 308.2 K): 0.00402
solubility (mole fraction) (in toluene, 313.2 K): 0.00744
solubility (mole fraction) (in toluene, 318.2 K): 0.0137
solubility (mole fraction) (in toluene, 323.2 K): 0.0291
solubility (mole fraction) (in toluene, 328.2 K): 0.0588
